The values that follow come from paper PMC7445415 (2020).

Assay [1] has as its system poly(dA-dT)2 (DNA, polymer) AT. Put plainly: UV melting, 260 nm. The note with it: Na+ (sodium cacodylate, I = 0.05 M); cacodylate pH 5.0; r = [NDI]/[polynucleotide] = 0.3; per base.
The subject of assay [2] is poly(dG-dC)2 (DNA, polymer) GC. Put plainly: ITC, one set of sites. The note with it: Na+ (sodium cacodylate, I = 0.05 M); cacodylate pH 5.0, 298 K (293 K in Experimental); n fixed 0.2; polynucleotide as nucleobases; per base. In general terms: In ITC the heat of successive injections is recorded.
For assay [3], the system named is poly(dA-dT)2 (DNA, polymer) AT. Put plainly: ITC, one set of sites. The note with it: Na+ (sodium cacodylate, I = 0.05 M); cacodylate pH 5.0, 298 K (293 K in Experimental); n fixed 0.2; polynucleotide as nucleobases; per base.
Assay [4] relates to poly(A)-poly(U) (RNA, polymer) A/U. Put plainly: fluorescence titration, Scatchard fit. The following applies: Na+ (sodium cacodylate, I = 0.05 M); cacodylate pH 5.0, 25 °C; 1 µM compound; n fixed 0.2; polynucleotide as nucleobases; per base.
The test system is the same in assay [5]. Put plainly: ITC, one set of sites. The following applies: Na+ (sodium cacodylate, I = 0.05 M); cacodylate pH 5.0, 298 K (293 K in Experimental); n fixed 0.2; polynucleotide as nucleobases; per base.
The test system is the same in assay [6]. Put plainly: UV melting, 260 nm. The note with it: Na+ (sodium cacodylate, I = 0.05 M); cacodylate pH 5.0; r = [NDI]/[polynucleotide] = 0.3; per base.
Assay [7] concerns poly(dG-dC)2 (DNA, polymer) GC. Put plainly: fluorescence titration, Scatchard fit. The following applies: Na+ (sodium cacodylate, I = 0.05 M); cacodylate pH 5.0, 25 °C; 1 µM compound; n fixed 0.2; polynucleotide as nucleobases; per base.
Assay [8] has as its system poly(dA-dT)2 (DNA, polymer) AT. Put plainly: fluorescence titration, Scatchard fit. The following applies: Na+ (sodium cacodylate, I = 0.05 M); cacodylate pH 5.0, 25 °C; 1 µM compound; n fixed 0.2; polynucleotide as nucleobases; per base.

On to `C[N+](C)(C)CCCN1C(=O)c2cc(NCCCC[C@H](N)C(=O)O)c3c4c(cc(Cl)c(c24)C1=O)C(=O)N(CCC[N+](C)(C)C)C3=O`, for which the “∆Tm” value is “+28.2 ± 0.5 °C” in assay [1] and “+25.1 ± 0.5 °C” in assay [6]. Also, the logKs amounted to 6.7 in assay [2]; 6.8 in assay [3]; 6.4 in assay [4]; 6.6 in assay [5]; 6.6 in assay [7]; 6.1 in assay [8].
For `C[N+](C)(C)CCCN1C(=O)c2cc(NCC[N+](C)(C)C)c3c4c(cc(Cl)c(c24)C1=O)C(=O)N(CCC[N+](C)(C)C)C3=O`, the “∆Tm” value in assay [1] is “+35.4 ± 0.5 °C”; in assay [6] it was “+30.3 ± 0.5 °C”. The logKs in assay [2] worked out at 6.5; in assay [3], 6.4; in assay [4] it was 6.2; in assay [5], 6.7; in assay [7], 6.4; in assay [8], 6.6.
Turning to `C[N+](C)(C)CCCN1C(=O)c2cc(NC[C@H](N)C(=O)O)c3c4c(cc(Cl)c(c24)C1=O)C(=O)N(CCC[N+](C)(C)C)C3=O`, the “∆Tm” value in assay [1] was “+21.6 ± 0.5 °C”; in assay [6] it was “+17.5 ± 0.5 °C”. Moreover, the logKs is on record as 6.7 in assay [2]; 6.3 in assay [3]; 6.0 in assay [4]; 5.9 in assay [5]; 7.2 in assay [7]; 6.0 in assay [8].
